# Source: US10111822B2, “External dermal composition for anti-ageing and method for producing the same” (Hayashibara Co., Ltd., priority 2012, dated 2018)
# How the values were obtained:
# Type in all cases: cell-based, human
# glutathione = experiment: Production level of glutathione in A431 cells; settings: 1 mM, 24 h, control = 100%
# Method: To Dulbecco's MEM medium, containing 10% v/v calf fetal serum and an antibiotic (abbreviated as “D-MEM”, hereinafter), were added ascorbic acid 2-glucoside, a reagent grade specimen commercialized by Hayashibara Co., Ltd., Okayama, Japan, or L-ascorbic acid, a special reagent grade specimen commercialized by Wako Pure Chemical Industries, Ltd., Tokyo, Japan, […]
# Continuously-cultivated A431 cells in D-MEM medium were collected, resuspended in D-MEM medium, inoculated to culture plates with 10 cm in diameter (φ) in an amount of 1×10^6 cells/10 mL/plate, and cultured for 24 hours. Thereafter, the culture supernatants were removed by sucking, and the remaining cells were added with any of the test solutions in an amount of 10 mL/plate and cultured for another 24 hours. As a control, cells were added with only D-MEM medium in an amount of 10 mL/plate and cultured for 24 hours. To each plate, which had been removed its culture supernatant, was added ice-chilled Dulbecco's PBS (−) commercialized by Nissui Pharmaceutical Co., Ltd., Tokyo, Japan, to wash cells, which were then collected with a scraper. Glutathione was quantified with “Glutathione Assay Kit”, a commercially available glutathione assay kit commercialized by BioVision, Inc., San Francisco, USA. In this experiment, the control and test solutions were respectively assayed by using three plates respectively, and the data were averaged for obtaining a glutathione production level for each plate. A5% v/v CO2 incubator was used for culturing A431 cells in any case. Relative values of test samples were determined with the proviso that the production levels of reduced glutathione and total glutathione levels in A431 cells that had been cultured with only D-MEM medium were respectively regarded as 100%, and the results are in Table 4.
# Dickkopf-1 (DKK1) = experiment: Production of DKK1 in NHDF cells (ELISA); settings: for DKK1 Production level, First day: n=3, control 0.115 ± 0.012; for DKK1 Production level, Third day: n=3, control 0.217 ± 0.021
# Method: NHDF Cells, which had been diluted with a culture medium to give a cell density of 1×10^4 cells/well, were inoculated to 96-well plates. At 24 hours after the inoculation, the supernatant in each well of the plates was removed, followed by adding ascorbic acid 2-glucoside to each well of the plates to give a final concentration of 0.5, 1, 2, 4, or 8 mM. As a control, a cell culture system with no addition of ascorbic acid 2-glucoside was provided. At the first and third days of culturing after the addition of ascorbic acid 2-glucoside, the supernatant in each well of the plates was collected and quantified (n=3) for DKK1 with “RayBio”, a product name of an ELISA for DKK1 assay, commercialized by RayBiotech Inc., Georgia, USA. Statistical analysis of the data was performed by t-test (see “Kiso-Tokeigaku (Basic Statistics) III Statistics of Natural Science”, page 187, 2008, edited by University of Tokyo Press).
# occludin = experiment: TJ-related protein occludin in NHEK cells (Western); settings: 3 days, CaCl2 positive control = 100%, no addition 63%
# Method: The following experiment was conducted to examine the effect of ascorbic acid 2-glucoside on the production of TJ-related proteins that constitute cell-cell adhesion structures by focusing on occludin and ZO-1 that are focused on as TJ-related proteins known to exist in a granular layer of epidermis: As a model for typical normal human epidermal cells, NHEK cells were suspended in EpiLife medium (pH 7.4); inoculated to 12-well microplates at a cell density of 1×10^5 cells/well; cultured overnight under the conditions of 37° C. and 5% v/v CO2; and further cultured for three days under the conditions of 37° C. and 5% v/v CO2 after adding either CaCl2 as a positive control to each well to give a final concentration of 0.5 mM, or “AA2G”, a product name of a particulate composition containing anhydrous crystalline ascorbic acid 2-glucoside, commercialized by Hayashibara Co., Ltd., Okayama, Japan, to give a final concentration of 0.5 or 1 mM. […] A sample of 20 μg protein for each lane per each cell extract in respective wells was applied to sodium dodecyl sulfate polyacrylamide gel electrophoresis (SDS-PAGE) with 10% w/v SDS containing DTT, followed by assaying the concentration of occludin or ZO-1 in each cell extract with “Luminate Western HRP Substrates”, a product name of a premixed, ready-to-use chemiluminescent detection reagent using an internal standard “α-Tubulin”, commercialized by Merck KGaA, Darmstadt, Germany, wherein there were used “F-11”, a product name of an anti-occludin mouse monoclonal antibody, commercialized by Santa Cruz Biotechnology, Inc., Texas, USA, or “ZO1-1A12”, a product name of a ZO-1 mouse monoclonal antibody, commercialized by Invitrogen Corporation, Calif., USA, was used as a first antibody; and “PO447”, a product name of a horseradish peroxidase (HRPO) labeled anti-mouse IgG, commercialized by DAKO Japan Inc., Tokyo, Japan, or “PO448”, a product name of an HRPO-labeled anti-rabbit IgG, commercialized by DAKO Japan Inc., Tokyo, Japan, as a secondary antibody. […]
smiles,measurement,setting,value
"O=C1O[C@H]([C@@H](O)CO)C(O)=C1O[C@H]1O[C@H](CO)[C@@H](O)[C@H](O)[C@H]1O [ascorbic acid 2-glucoside, 2-O-α-D-glucosyl-L-ascorbic acid]",Total glutathione,glutathione,106%
same,"DKK1 Production level, First day",Dickkopf-1 (DKK1); 0.5 mmol/L,0.117 ± 0.018 ng/mL
same,"DKK1 Production level, Third day",Dickkopf-1 (DKK1); 0.5 mmol/L,0.317 ± 0.035 ng/mL
same,"DKK1 Production level, First day",Dickkopf-1 (DKK1); 1 mmol/L,0.129 ± 0.017 ng/mL
same,"DKK1 Production level, Third day",Dickkopf-1 (DKK1); 1 mmol/L,0.315 ± 0.042 ng/mL
same,"DKK1 Production level, First day",Dickkopf-1 (DKK1); 2 mmol/L,0.149 ± 0.037 ng/mL
same,"DKK1 Production level, Third day",Dickkopf-1 (DKK1); 2 mmol/L,0.339 ± 0.030 ng/mL
same,"DKK1 Production level, First day",Dickkopf-1 (DKK1); 4 mmol/L,0.146 ± 0.016 ng/mL
same,"DKK1 Production level, Third day",Dickkopf-1 (DKK1); 4 mmol/L,0.392 ± 0.014 ng/mL
same,"DKK1 Production level, First day",Dickkopf-1 (DKK1); 8 mmol/L,0.179 ± 0.032 ng/mL
same,"DKK1 Production level, Third day",Dickkopf-1 (DKK1); 8 mmol/L,0.413 ± 0.033 ng/mL
same,Occludin concentration in cell extract,occludin; 0.5 mM,78%
same,Occludin concentration in cell extract,occludin; 1 mM,85%
